Here are results for one molecule from US20200278355A1, “CONJUGATED PROTEINS AND USES THEREOF” (THE SCRIPPS RESEARCH INSTITUTE, priority 2017, published 2020).

Assay type in all cases: cell-based
Common to all, as to conditions: 20 μM

One experiment has as its target T1, NUDT8 (Homo sapiens, UniProt Q8WV74).
T1 construct: H460 cells or H460 cells expressing luciferase in a 10 cm plate were incubated with indicated compounds; endogenous in cells; host or cells: H460
Description: ABPP-SILAC BPK-29yne competition in H460 cells: NUDT8. As to the method: (§1) Isotopically labeled H460 cell lines were generated as described above. Light and heavy cells were treated with compounds (20 μM) or DMSO, respectively, for 3 h, followed by labeling with the BPK-29yne (5 μM) for 30 min. Cells were washed once ice-cold PBS and lysed in 1% Triton 100-X dissolved in PBS with protease inhibitors (Sigma) by sonication. Lysate was adjusted to 1.5 mg ml^−1 in 500 μL. Samples were conjugated by CuAAC to Biotin-PEG4-azide (5 μL of 10 mM stocks in DMSO, final concentration=100 μM). CuAAC “click” mix contained TCEP, TBTA ligand and CuSO4 as detailed for isoTOP-ABPP sample preparation. Samples were further processed as detailed in: isoTOP-ABPP streptavidin enrichment and isoTOP-ABPP trypsin TEV digestion with the following exception: after overnight incubation at 37° C. with trypsin, tryptic digests were separated from the beads with Micro Bio-Spin columns (Bio-Rad) by centrifugation (1,000×g, 1 min). Beads were rinsed once with water (200 μL) and combined with tryptic digests. […]
(§2) The MS2 spectra data were extracted and searched using RAW Convertor and ProLuCID algorithm as described in isoTOP-ABPP peptide and protein quantification. […] Ratios of heavy/light (DMSO/test compound) peaks were calculated using in-house CIMAGE software. […] The mean R values and standard deviation for multiple biological experiments were calculated from the average ratios from each replicate. […]

For the next experiment, the target named is T2, FAM213A (Homo sapiens, UniProt Q9BRX8).
T2 construct: Isotopically labeled H460 cell lines were generated as described above; endogenous in cells; host or cells: H460 (SILAC-labelled)
Description: ABPP-SILAC BPK-29yne competition in H460 cells: FAM213A. The protocol:
as §1, §2

A further experiment deals with T3, SELO (Homo sapiens, UniProt Q9BVL4).
T3 construct: Isotopically labeled H460 cell lines were generated as described above; endogenous in cells; host or cells: H460 (SILAC-labelled)
Description: ABPP-SILAC BPK-29yne competition in H460 cells: SELO. The protocol:
as §1, §2

For the next experiment, the target named is T4, NT5DC1 (Homo sapiens, UniProt Q5TFE4).
T4 construct: Isotopically labeled H460 cell lines were generated as described above; endogenous in cells; host or cells: H460 (SILAC-labelled)
Description: ABPP-SILAC BPK-29yne competition in H460 cells: NT5DC1. As to the method:
as §1, §2

Another experiment addresses T5, TXNRD1 (Homo sapiens, UniProt Q16881).
T5 construct: endogenous in cells; host or cells: H460
Description: ABPP-SILAC BPK-29yne competition in H460 cells: TXNRD1. The protocol:
as §1, §2

For a further experiment, the target named is T6, NR0B1 (Homo sapiens, UniProt P51843).
T6 construct: H460 cells or H460 cells expressing luciferase in a 10 cm plate were incubated with indicated compounds; endogenous in cells; host or cells: H460 (NSCLC, KEAP1-mutant)
T6 sequence (P51843 1-470): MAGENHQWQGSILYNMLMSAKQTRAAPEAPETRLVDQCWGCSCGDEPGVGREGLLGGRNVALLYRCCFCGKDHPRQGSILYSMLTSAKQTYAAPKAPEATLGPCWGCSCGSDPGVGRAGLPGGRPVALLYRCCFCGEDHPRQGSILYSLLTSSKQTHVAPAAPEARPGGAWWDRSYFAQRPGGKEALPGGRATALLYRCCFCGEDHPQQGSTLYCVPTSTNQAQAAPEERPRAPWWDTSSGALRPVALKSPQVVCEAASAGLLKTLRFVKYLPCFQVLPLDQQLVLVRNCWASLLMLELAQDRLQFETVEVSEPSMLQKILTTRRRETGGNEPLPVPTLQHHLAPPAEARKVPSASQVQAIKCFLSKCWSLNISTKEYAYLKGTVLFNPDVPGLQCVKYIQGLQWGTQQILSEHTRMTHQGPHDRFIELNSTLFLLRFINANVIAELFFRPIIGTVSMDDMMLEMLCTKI
Description: ABPP-SILAC BPK-29yne competition in H460 cells: NR0B1. As to the method: as §1, §2

T4 sequence (Q5TFE4 whole entry): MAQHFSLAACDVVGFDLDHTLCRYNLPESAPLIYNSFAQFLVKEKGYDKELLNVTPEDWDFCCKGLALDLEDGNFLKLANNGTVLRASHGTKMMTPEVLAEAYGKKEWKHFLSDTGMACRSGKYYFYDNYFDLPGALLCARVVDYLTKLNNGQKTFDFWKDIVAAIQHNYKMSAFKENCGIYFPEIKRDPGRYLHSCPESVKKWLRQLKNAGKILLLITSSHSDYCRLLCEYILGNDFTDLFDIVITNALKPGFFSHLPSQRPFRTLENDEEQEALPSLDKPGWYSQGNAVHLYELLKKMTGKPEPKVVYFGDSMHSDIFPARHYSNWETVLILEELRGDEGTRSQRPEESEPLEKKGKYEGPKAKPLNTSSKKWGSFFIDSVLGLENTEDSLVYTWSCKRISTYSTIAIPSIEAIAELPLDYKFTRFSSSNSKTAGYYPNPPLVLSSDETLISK
T5 sequence (Q16881 whole entry): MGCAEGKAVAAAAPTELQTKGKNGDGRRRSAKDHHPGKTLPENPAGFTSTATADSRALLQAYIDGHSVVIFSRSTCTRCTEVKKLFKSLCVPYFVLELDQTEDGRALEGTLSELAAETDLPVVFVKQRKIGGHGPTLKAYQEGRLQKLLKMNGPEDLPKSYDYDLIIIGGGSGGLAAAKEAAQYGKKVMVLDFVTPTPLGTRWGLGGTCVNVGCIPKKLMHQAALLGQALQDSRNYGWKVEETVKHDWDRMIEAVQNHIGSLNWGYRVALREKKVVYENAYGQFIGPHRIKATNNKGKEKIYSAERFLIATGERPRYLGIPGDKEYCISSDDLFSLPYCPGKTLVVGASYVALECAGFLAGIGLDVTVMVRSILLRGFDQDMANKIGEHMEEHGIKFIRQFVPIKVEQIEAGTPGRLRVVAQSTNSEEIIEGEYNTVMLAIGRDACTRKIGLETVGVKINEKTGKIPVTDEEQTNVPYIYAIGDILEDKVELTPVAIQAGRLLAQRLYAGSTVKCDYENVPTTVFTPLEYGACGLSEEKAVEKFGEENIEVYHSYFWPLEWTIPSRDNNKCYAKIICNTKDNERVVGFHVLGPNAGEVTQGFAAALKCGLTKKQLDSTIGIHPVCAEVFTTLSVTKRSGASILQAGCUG
T3 sequence (Q9BVL4 116-669): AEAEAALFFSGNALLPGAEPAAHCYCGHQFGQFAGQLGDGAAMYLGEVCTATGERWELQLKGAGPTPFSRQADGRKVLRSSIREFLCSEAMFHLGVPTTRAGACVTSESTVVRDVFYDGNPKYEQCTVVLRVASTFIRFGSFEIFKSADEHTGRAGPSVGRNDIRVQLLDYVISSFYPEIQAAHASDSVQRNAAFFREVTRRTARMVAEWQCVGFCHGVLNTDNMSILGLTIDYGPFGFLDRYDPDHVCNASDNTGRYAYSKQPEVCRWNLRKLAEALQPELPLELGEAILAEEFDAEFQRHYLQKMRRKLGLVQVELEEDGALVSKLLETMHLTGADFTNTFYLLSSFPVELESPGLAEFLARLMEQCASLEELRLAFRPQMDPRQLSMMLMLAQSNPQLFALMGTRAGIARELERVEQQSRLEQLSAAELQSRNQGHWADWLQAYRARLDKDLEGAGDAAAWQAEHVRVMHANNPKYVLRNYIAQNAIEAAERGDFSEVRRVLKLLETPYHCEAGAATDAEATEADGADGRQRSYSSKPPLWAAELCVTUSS
T2 sequence (Q9BRX8 whole entry): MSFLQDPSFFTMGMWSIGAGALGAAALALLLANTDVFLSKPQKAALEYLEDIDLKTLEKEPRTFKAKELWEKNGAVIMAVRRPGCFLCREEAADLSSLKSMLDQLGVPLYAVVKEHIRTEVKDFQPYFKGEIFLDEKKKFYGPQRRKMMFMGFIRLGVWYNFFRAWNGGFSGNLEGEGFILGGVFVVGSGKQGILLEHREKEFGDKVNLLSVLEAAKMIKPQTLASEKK
T1 sequence (Q8WV74 whole entry): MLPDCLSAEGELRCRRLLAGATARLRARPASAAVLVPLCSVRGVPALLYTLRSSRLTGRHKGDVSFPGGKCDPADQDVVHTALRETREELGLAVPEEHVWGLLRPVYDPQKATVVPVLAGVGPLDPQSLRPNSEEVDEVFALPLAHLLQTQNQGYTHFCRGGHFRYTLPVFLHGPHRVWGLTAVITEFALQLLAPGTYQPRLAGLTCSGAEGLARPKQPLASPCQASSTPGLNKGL

As for `O=C(c1ccc(N2CCOCC2)cc1)N1CCCC(N(Cc2ccccc2)C(=O)CCl)CC1` (stereo not drawn) [BPK-29, N-benzyl-2-chloro-N-(1-(4-morpholinobenzoyl)azepan-4-yl)acetamide], the “BPK-29-competed BPK-29yne analysis” value on NUDT8, at FAM213A, at SELO, at NT5DC1, on TXNRD1 and at NR0B1 was “Yes (Competed defined as showing R value ≥ 2.5 at 20 μM of test compound)” throughout.
